Measured values reported in ChEMBL document CHEMBL3352021, “Naphthyridinone (NTD) integrase inhibitors 4. Investigating N1 acetamide substituent effects with C3 amide groups” (Bioorg Med Chem Lett, 2014).
pIC50: −log10 of the molar value.

Columns and labels:
[1] = molecular target: Human immunodeficiency virus type 1 integrase (Human immunodeficiency virus 1, UniProt Q7ZJM1); test: Inhibition of recombinant HIV-1 integrase by strand-transfer assay
[2] = system: Human immunodeficiency virus; test: Antiviral activity against pseudotyped HIV by luciferase reporter gene assay; type: functional, organism-based; conditions: Human immunodeficiency virus 1
[3] = system: Human immunodeficiency virus; test: Antiviral activity against pseudotyped HIV by luciferase reporter gene assay in presence of human serum albumin; type: functional, organism-based; conditions: Human immunodeficiency virus 1
[4] = system: Human immunodeficiency virus; test: Antiviral activity against HIV infected in PBMC; type: functional, organism-based; conditions: Human immunodeficiency virus 1
[5] = system: Human immunodeficiency virus; test: Ratio of IC50 for pseudotyped HIV by luciferase reporter gene assay in presence of human serum albumin to IC50 for pseudotyped HIV by luciferase reporter gene assay; type: functional
[6] = system: Human immunodeficiency virus; test: Antiviral activity against HIV infected in PBMC assessed as protein-adjusted compound concentration; type: functional, organism-based; conditions: Human immunodeficiency virus 1
[7] = Inhibition of CYP450 (unknown origin) up to 33 uM; type: ADME; conditions: human
[8] = Half life in rat at 1 mg/kg, iv as bolus dose; type: ADME, organism-based; set-up: dose 1 mg/kg, route intravenous; conditions: in vivo
[9] = Half life in dog at 1 mg/kg, iv as bolus dose; type: ADME, organism-based, Canis lupus familiaris; set-up: dose 1 mg/kg, route intravenous; conditions: in vivo
[10] = Half life in cynomolgus monkey at 1 mg/kg, iv as bolus dose; type: ADME, organism-based, Macaca fascicularis; set-up: dose 1 mg/kg, route intravenous; conditions: in vivo
[11] = Oral bioavailability in rat at 5 mg/kg; type: ADME, organism-based; conditions: in vivo
[12] = Oral bioavailability in dog at 5 mg/kg; type: ADME, organism-based, Canis lupus familiaris; conditions: in vivo
[13] = Oral bioavailability in cynomolgus monkey at 5 mg/kg; type: ADME, organism-based, Macaca fascicularis; conditions: in vivo
[14] = Ratio of plasma concentration in rat at 5 mg/kg, po to IC90 for HIV infected in PBMC assessed as protein-adjusted compound concentration; type: ADME, organism-based; set-up: dose 5 mg/kg, route oral; conditions: in vivo
[15] = Ratio of plasma concentration in cynomolgus monkey at 5 mg/kg, po to IC90 for HIV infected in PBMC assessed as protein-adjusted compound concentration; type: ADME, organism-based; set-up: dose 5 mg/kg, route oral; conditions: in vivo
[16] = Plasma clearance in rat at 1 mg/kg, iv
[17] = Plasma clearance in dog at 1 mg/kg, iv
[18] = Plasma clearance in cynomolgus monkey at 1 mg/kg, iv
[19] = molecular target: T1, Cytochrome P450 1A2 (Homo sapiens, UniProt P05177); test: Inhibition of CYP1A2 (unknown origin) at 4.7 uM; type: ADME
T1 sequence (P05177 whole entry): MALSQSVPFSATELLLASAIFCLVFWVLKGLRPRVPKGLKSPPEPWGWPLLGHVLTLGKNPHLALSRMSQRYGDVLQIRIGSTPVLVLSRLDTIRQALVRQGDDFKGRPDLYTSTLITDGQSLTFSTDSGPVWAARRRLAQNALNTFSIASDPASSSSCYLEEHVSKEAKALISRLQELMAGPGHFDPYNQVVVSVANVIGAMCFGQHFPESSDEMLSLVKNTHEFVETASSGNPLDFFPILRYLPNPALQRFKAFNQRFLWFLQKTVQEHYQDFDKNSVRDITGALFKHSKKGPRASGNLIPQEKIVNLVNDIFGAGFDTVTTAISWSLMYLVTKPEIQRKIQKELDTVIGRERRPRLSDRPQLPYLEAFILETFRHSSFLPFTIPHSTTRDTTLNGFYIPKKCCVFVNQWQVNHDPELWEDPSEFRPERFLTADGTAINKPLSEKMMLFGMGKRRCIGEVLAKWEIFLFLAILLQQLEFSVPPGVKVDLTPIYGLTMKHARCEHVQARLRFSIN

[20] = Ratio of plasma concentration in dog at 5 mg/kg, po to IC90 for HIV infected in PBMC assessed as protein-adjusted compound concentration; type: ADME, organism-based; set-up: dose 5 mg/kg, route oral; conditions: in vivo

Chain of Human immunodeficiency virus type 1 integrase (Q7ZJM1 whole entry): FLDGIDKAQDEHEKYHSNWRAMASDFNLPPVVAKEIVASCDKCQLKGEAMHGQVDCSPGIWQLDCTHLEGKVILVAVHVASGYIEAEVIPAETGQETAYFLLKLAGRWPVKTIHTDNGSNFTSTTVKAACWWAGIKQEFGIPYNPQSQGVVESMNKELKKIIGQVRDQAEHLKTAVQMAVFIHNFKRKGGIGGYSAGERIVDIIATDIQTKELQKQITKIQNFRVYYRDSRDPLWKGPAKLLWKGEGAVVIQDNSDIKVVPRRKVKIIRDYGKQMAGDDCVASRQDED

pIC50 [1] | pIC50 [2] | pIC50 [3] | SMILES | other results
7.35 | 7.57 | 6.91 | COCCNC(=O)c1c(O)c2ncc(Cc3ccc(F)cc3)cc2n(CC(=O)NCCN(C)C)c1=O | –
8.36 | 8.04 | 7.77 | CCN(CC)C(=O)Cn1c(=O)c(C(=O)NC)c(O)c2ncc(Cc3ccc(F)cc3)cc21 | –
8.12 | 8.46 | 8.17 | COCCNC(=O)c1c(O)c2ncc(Cc3ccc(F)cc3)cc2n(CC(=O)N2CCOCC2)c1=O | –
8.36 | 8.59 | 8.12 | CNC(=O)c1c(O)c2ncc(Cc3ccc(F)cc3)cc2n(CC(=O)NC2CC2)c1=O | –
7.38 | 8.42 | 7.96 | COCCNC(=O)c1c(O)c2ncc(Cc3ccc(F)cc3)cc2n(CC(=O)N2CCCC2)c1=O | –
7.96 | 8.62 | 7.70 | COCCNC(=O)c1c(O)c2ncc(Cc3ccc(F)cc3)cc2n(CC(=O)NCC(F)(F)F)c1=O | –
8.24 | 8.48 | 7.89 | CNC(=O)c1c(O)c2ncc(Cc3ccc(F)cc3)cc2n(CC(=O)NOC)c1=O | –
8.17 | 8.43 | 7.04 | CNC(=O)c1c(O)c2ncc(Cc3ccc(F)cc3)cc2n(CC(=O)NCCOC)c1=O | –
8.07 | 8.48 | 7.41 | COCCNC(=O)c1c(O)c2ncc(Cc3ccc(F)cc3)cc2n(CC(=O)NC2CCC2)c1=O | –
8.04 | 8.26 | 7.85 | CCCNC(=O)Cn1c(=O)c(C(=O)NC)c(O)c2ncc(Cc3ccc(F)cc3)cc21 | –
7.64 | 8.14 | 7.62 | CN(C)C(=O)Cn1c(=O)c(C(=O)NC2(CO)CCCC2)c(O)c2ncc(Cc3ccc(F)cc3)cc21 | –
8.33 | 8.44 | 7.92 | COCCNC(=O)c1c(O)c2ncc(Cc3ccc(F)cc3)cc2n(CC(=O)N2CCCCC2)c1=O | –
7.55 | 8.28 | 7.89 | COCCNC(=O)c1c(O)c2ncc(Cc3ccc(F)cc3)cc2n(CC(=O)N2CCN(C)CC2)c1=O | –
8.09 | 8.54 | 7.96 | CCNC(=O)Cn1c(=O)c(C(=O)NC)c(O)c2ncc(Cc3ccc(F)cc3)cc21 | –
8.09 | 8.77 | – | Cn1c(=O)c(C(=O)NCCO)c(O)c2ncc(Cc3ccc(F)cc3)cc21 [GSK-364735] | –
8.04 | 7.96 | 7.15 | C[C@@H](O)CNC(=O)c1c(O)c2ncc(Cc3ccc(F)cc3)cc2n(CC(=O)N(C)C)c1=O | –
8.52 | 8.03 | 6.71 | CN(C)C(=O)Cn1c(=O)c(C(=O)NC2CC2)c(O)c2ncc(Cc3ccc(F)cc3)cc21 | –
8.12 | 8.66 | 7.25 | CNC(=O)c1c(O)c2ncc(Cc3ccc(F)cc3)cc2n(CC(N)=O)c1=O | –
8.03 | 8.48 | 7.66 | CNC(=O)Cn1c(=O)c(C(=O)NC)c(O)c2ncc(Cc3ccc(F)cc3)cc21 | –

pIC50 [1] | pIC50 [2] | pIC50 [3] | SMILES | other results
8.24 | 7.77 | 7.46 | CN(C)C(=O)Cn1c(=O)c(C(=O)NCCO)c(O)c2ncc(Cc3ccc(F)cc3)cc21 | –
8.40 | 8.51 | 8.05 | COCCNC(=O)c1c(O)c2ncc(Cc3ccc(F)cc3)cc2n(CC(=O)N(C)C)c1=O | pIC50 [4]: 8.37; Ratio IC50 [5]: 2.9; pIC50 [6]: 7.89; IC90 [6]: 50 nM; inhibition (INH) [7]: Not Active; half-life [8]: 12.5 h; half-life [9]: 1.8 h; half-life [10]: 5.4 h; bioavailability [11]: 59%; bioavailability [12]: 7%; bioavailability [13]: 31%; Ratio [14]: 0.5; Ratio [15]: 0.6; clearance [16]: 3.6 mL/min/kg; clearance [17]: 19.5 mL/min/kg; clearance [18]: 9.2 mL/min/kg
8.15 | 8.82 | 7.82 | CNC(=O)c1c(O)c2ncc(Cc3ccc(F)cc3)cc2n(CC(=O)NCC(F)(F)F)c1=O | –
8.11 | 8.49 | 7.92 | CNC(=O)c1c(O)c2ncc(Cc3ccc(F)cc3)cc2n(CC(=O)NC(C)C)c1=O | –
8.07 | 7.51 | 7.40 | C[C@H](CO)NC(=O)c1c(O)c2ncc(Cc3ccc(F)cc3)cc2n(CC(=O)N(C)C)c1=O | –
8.07 | 7.72 | 7.60 | CN(C)C(=O)Cn1c(=O)c(C(=O)NCCN2CCOCC2)c(O)c2ncc(Cc3ccc(F)cc3)cc21 | –
8.05 | 8.52 | 7.85 | CNC(=O)Cn1c(=O)c(C(=O)NCCOC)c(O)c2ncc(Cc3ccc(F)cc3)cc21 | pIC50 [4]: 8.64; Ratio IC50 [5]: 4.5; pIC50 [6]: 8.00; IC90 [6]: 41 nM; inhibition (INH) [19]: Active; half-life [8]: 3.7 h; half-life [9]: 1.2 h; half-life [10]: 2.3 h; bioavailability [11]: 51%; bioavailability [12]: 111%; bioavailability [13]: 19%; Ratio [14]: 56; Ratio [20]: 0.1; Ratio [15]: 0.8; clearance [16]: 0.5 mL/min/kg; clearance [17]: 13.8 mL/min/kg; clearance [18]: 2 mL/min/kg
8.14 | 8.52 | 7.74 | COCCNC(=O)c1c(O)c2ncc(Cc3ccc(F)cc3)cc2n(CC(=O)NC2CC2)c1=O | –
8.15 | 7.77 | 7.62 | C[C@@H](CO)NC(=O)c1c(O)c2ncc(Cc3ccc(F)cc3)cc2n(CC(=O)N(C)C)c1=O | –
8.39 | 8.15 | 7.82 | C[C@H](O)CNC(=O)c1c(O)c2ncc(Cc3ccc(F)cc3)cc2n(CC(=O)N(C)C)c1=O | –
8.11 | 8.37 | 7.66 | COCCNC(=O)c1c(O)c2ncc(Cc3ccc(F)cc3)cc2n(CC(N)=O)c1=O | –
8.21 | 8.49 | 7.24 | COCCNC(=O)c1c(O)c2ncc(Cc3ccc(F)cc3)cc2n(CC(=O)NC(C)C)c1=O | –
8.10 | 8.23 | 7.48 | CNC(=O)c1c(O)c2ncc(Cc3ccc(F)cc3)cc2n(CC(=O)NCC2CC2)c1=O | –
8.16 | 8.32 | 7.80 | CNC(=O)c1c(O)c2ncc(Cc3ccc(F)cc3)cc2n(CC(=O)NC(C)(C)C)c1=O | –
8.19 | 8.44 | 7.09 | CN(C)C(=O)Cn1c(=O)c(C(=O)NC(C)(C)CO)c(O)c2ncc(Cc3ccc(F)cc3)cc21 | –
7.89 | 8.31 | 7.80 | CNC(=O)c1c(O)c2ncc(Cc3ccc(F)cc3)cc2n(CC(=O)N2CCCC2)c1=O | –
7.66 | 7.38 | 7.08 | CNC(=O)c1c(O)c2ncc(Cc3ccc(F)cc3)cc2n(CC(=O)NCCN(C)C)c1=O | –
8.03 | 8.23 | 7.72 | CNC(=O)c1c(O)c2ncc(Cc3ccc(F)cc3)cc2n(CC(=O)N(C)C)c1=O | pIC50 [4]: 8.38; Ratio IC50 [5]: 3.3; pIC50 [6]: 7.85; IC90 [6]: 55 nM; inhibition (INH) [7]: Not Active; half-life [8]: 13.8 h; half-life [9]: 1.3 h; half-life [10]: 5 h; bioavailability [11]: 69%; bioavailability [12]: 75%; bioavailability [13]: 60%; Ratio [14]: 2.4; Ratio [20]: 0.1; Ratio [15]: 0.7; clearance [16]: 0.7 mL/min/kg; clearance [17]: 10.9 mL/min/kg; clearance [18]: 6.3 mL/min/kg
